Results from US12514834B2, “Pharmaceutical composition for treating and/or preventing renal cystic ciliopathy” (Kyoto University, priority 2022, dated 2026).

Columns and labels:
[1] = system: cysts of collecting duct organoids from PKD1 knockout iPS cells (1383D2 cell line); test: Cyst enlargement inhibition in cysts from artificial collecting duct organoids induced from PKD1 knockout iPS cells; assay type: cell-based, human; details: 0.1 μM compound, with 2.5 μM AVP, 3 days of culturing, vs 0.1% DMSO; FIGS. 1-5
Method: Using PKD1 knockout iPS cells of the 1383D2 cell line, artificial collecting duct organoids with cystic structures were induced by the above method. The following protocol was used to examine compounds that inhibit cyst enlargement. • 1. Organoids in which cyst formation was occurring were collected in tubes. • 2. Medium was removed and 2 ml of Cell Recovery Solution was added. (4° C., 30 minutes) • 3. Gel was dissolved by gentle pipetting with a P-1000 pipetteman and then centrifuged. (500 g, 2 minutes) • 4. After removing the supernatant from 3 and adding 5 ml of FBS-containing medium (STO medium), cysts were separated from the organoids by pipetting. • 5. Using a stereomicroscope, cysts were collected in 15 ml tubes. • 6. The supernatant was removed, and then 2 ml of Accutase was added to perform treatment at 37° C. for 5 minutes. • 7. Cells were dissociated down to single cells by pipetting with a P-1000 pipetteman. • 8. After filtering, cells were counted. • 9. After cell counting, a cell suspension containing the required number of cells was transferred to a tube, and then 5 ml of FBS-containing medium (STO medium) was added to stop the Accutase reaction. To seed at 5×10^4 cells/well, the amount of the cell suspension required was calculated. • 10. Pellets were prepared by centrifugation (200 g, 5 minutes). • 11. The supernatant was thoroughly removed, and then DMEM/F12+B27 w/o V.A. medium (10% Afamin/Wnt3a CM, 200 ng/ml R-Spondin 1, 200 ng/ml FGF1, 10 μM Forskolin, 2.5 μM AVP, 10 μM Y27632) was added for suspension. To seed at 5×10^4 cells/well, the amount of medium required was calculated. • 12. The cell suspension from 11 was seeded at 5×10^4 cells/well into pre-prepared 50% Matrigel plates. The cell suspension was added slowly to avoid disrupting the Matrigel. • 13. […] Nine (9) locations inside the wells were photographed using a 4× objective lens under a fluorescence microscope (Keyence, BZ-X700), the cyst area was measured using a BZ-X Analyzer, and then the average value was calculated.
Cyst enlargement-inhibiting compounds to be evaluated in step 14 were added. […]

[2] = system: cyst cells from PKD1 knockout iPS cell-derived collecting duct organoids; test: Microarray comparison of gene expression in cyst cells cultured with and without TTNPB (GSEA, heat maps); assay type: cell-based, human; details: 0.1 μM TTNPB, cysts on day 5 of culture
Method: For comprehensive profiling of transcripts encoding human proteins, microarray analysis was performed at Filgen using the Human 8×60K LncRNA expression array (ArrayStar). Labeling of samples and array hybridization were performed according to the Agilent One-Color Microarray-Based Gene Expression Analysis protocol (Agilent Technology). Data were collected using Agilent's Feature Extraction software. Raw signal intensities were normalized using the quantile normalization method of GeneSpring GX v12.1.
To clarify the mechanism of action of TTNPB, gene expression in cyst cells cultured with and without TTNPB was compared by microarray (FIGS. 6 and 7).

[3] = system: Pkd1flox/flox:Ksp-Cre mice (ADPKD model); test: ATRA treatment of ADPKD model mice; assay type: in vivo, mouse
Source text: Pkd1^flox/flox:Ksp-cre mice, which are ADPKD model mice, develop numerous cysts progressively after birth and die at approximately 14 days of age due to renal failure.
Mouse lineages were maintained with heterozygous Pkd1^flox/+:Ksp-Cre mice, and Pkd1^flox/flox:Ksp-cre mice were generated by mating mice of the same lineage.
On postnatal day 3, Pkd1^flox/flox:Ksp-cre mice (Cystic) and Pkd1^flox/+:Ksp-Cre mice (Non-cystic) were intraperitoneally administered with ATRA (Sigma, #R2625) dissolved in sunflower oil containing 2% DMSO (solvent) to achieve a dose of 10 mg/kg. A group of mice administered with only the solvent intraperitoneally was served as a negative control. Mice were euthanized on postnatal day 9, and renal tissues and blood samples were collected.
BUN in mouse serum was measured using an UN-L kit (Serotec, #A667-00).
Kidneys were fixed in 4% paraformaldehyde solution, and 4 μm-thick paraffin sections were prepared. After deparaffinization, HE staining was performed and renal tissues were photographed under an optical microscope. Cystic index was calculated by total cystic area/total renal tissue area×100 using image analysis and measurement software (WinROOF, Mitani Corporation).
Therapeutic effects of ATRA on ADPKD model mice Since ATRA has already been used as a therapeutic agent for Acute Promyelocytic Leukemia (APL) patients, the efficacy of ATRA in ADPKD model mice was examined from a drug repositioning perspective. To reflect the in vitro results of ATRA on collecting duct cyst enlargement in in vivo, Pkd1^flox/flox:Ksp-Cre mice, in which the Pkd1 allele is conditionally inactivated under expression of kidney-specific Ksp-Cre recombinase in the distal nephron segments and collecting ducts, were used. The mice develop renal failure from birth due to progressive cyst formation and die about 2 weeks after birth. Because Ksp cadherin is specifically expressed in the collecting ducts and distal tubules, cysts originating from the collecting ducts and distal tubules are formed in these ADPKD model mice. ATRA was administered at 10 mg/kg intraperitoneally to mice on postnatal day 3 (P3), and mice were then sacrificed at P9 (FIG. 12).

[4] = 10 mg/kg intraperitoneally on P3, P9, FIG. 14

| Structure (SMILES) | cyst size (cyst area) [1] | TGFβ signaling pathway (GSEA) ([2]; FIG. 8) | expression levels of MMP1, SLC2A1, CFTR, and HMGCR ([2]; heat map FIG. 9) | expression of cellular senescence marker genes such as CDKN2B (p15) ([2]; heat map FIG. 10) | cyst formation on the cortical side (HE-stained renal tissue sections) [3, 4] | kidney size (HE-stained renal tissue sections) [3, 4] | ratio of kidney weights to body weight (2KW/BW) ([3]; 10 mg/kg intraperitoneally on P3, P9, vs solvent, FIG. 13) | cystic index (proportion of the area occupied by cysts in the renal tissue) ([3]; 10 mg/kg intraperitoneally on P3, P9, vs solvent, FIG. 15) | body weight ([3]; 10 mg/kg intraperitoneally on P3, sacrificed at P9, FIG. 12) | BUN (blood urea nitrogen) levels ([3]; 10 mg/kg intraperitoneally on P3, serum at P9, vs control mice treated with solvent, FIG. 16) |
| --- | --- | --- | --- | --- | --- | --- | --- | --- | --- | --- |
| CC1(C)CCC(C)(C)c2cc(NC(=O)c3ccc(C(=O)O)cc3)ccc21 [AM80, tamibarotene] | significantly reduced the cyst sizes |  |  |  |  |  |  |  |  |  |
| C/C(=C\c1ccc(C(=O)O)cc1)c1ccc2c(c1)C(C)(C)CCC2(C)C [TTNPB, 4-[(E)-2-(5,6,7,8-tetrahydro-5,5,8,8-tetramethyl-2-naphthalenyl)-1-propenyl]benzoic acid] | significant reduction in cyst size | inhibited | decreased | promotes the expression |  |  |  |  |  |  |
| CC1=C(/C=C/C(C)=C/C=C/C(C)=C/C(=O)O)C(C)(C)CCC1 [ATRA, all-trans retinoic acid] | reduced the cyst sizes |  |  |  | tended to inhibit cyst formation on the cortical side | suppressed the increase in kidney size | significantly decreased | significantly reduced | No significant body weight loss | significantly lower |
